Measurements published in US20250205188A1, “TREATMENT OR PREVENTION OF RESPIRATORY DISEASES CHARACTERISED BY, OR INVOLVING, LUNG FIBROSIS” (IMPERIAL COLLEGE INNOVATIONS LIMITED, priority 2022, published 2025).

What was measured:
[1] = tested on: Healthy primary human lung fibroblasts; experiment: Seahorse glycolytic stress test (ECAR); type: cell-based; conditions: 0.1 mM, 1 mM and 10 mM for 1 hour, then with or without 2 ng/ml TGF-β1 24 hours; FIGS. 4 and 5
Description: Healthy primary human lung fibroblasts (10,000 per well) were seeded in a seahorse plate pre-coated with Cell Tak (BD Biosciences, Oxford, UK). After an overnight incubation, fibroblasts were treated with different itaconate analogues for 1 hour and they were subsequently incubated with or without 2 ng/ml TGF-β1 for 24 hours. XF medium (nonbuffered RPMI containing 2 mM glutamine, 1 mM pyruvate and 10 mM glucose, pH 7.4, Agilent, Santa Clara, USA) was used to measure Oxygen Consumption Rate (OCR) and Extracellular Acidification Rate (ECAR) with the XFp extracellular flux analyser. The Seahorse glycolytic Stress Test (Agilent, Santa Clara, USA) was utilized to measure OCR and ECAR at baseline. Healthy primary human lung fibroblasts (10,000 per well) were seeded in a seahorse plate pre-coated with Cell Tak (BD Biosciences, Oxford, UK). After an overnight incubation, fibroblasts were treated with different concentrations (0.1 mM, 1 mM and 10 mM) of the itaconate analogues, citraconate or mesaconate, for 1 hour and they were subsequently incubated with or without 2 ng/ml TGF-β1 for 24 hours. XF medium (nonbuffered RPMI containing 2 mM glutamine, 1 mM pyruvate and 10 mM glucose, pH 7.4, Agilent, Santa Clara, USA) was used to measure an Extracellular Acidification Rate (ECAR) with the XFp extracellular flux analyser for the citraconate assay (FIG. 4) or mesaconate assay (FIG. 5). […]

[2] = tested on: Human lung fibroblast cells; experiment: RT-PCR gene expression in TGFβ fibrosis model of human lung fibroblast cells; type: cell-based; conditions: 10 mM for 1 hour, then 2 ng/mL TGFβ 24 hours, relative to untreated cells; for gene expression of Col1α1: FIG. 2A; for gene expression of FN1: FIG. 2B; for gene expression of CTGF: FIG. 2C
Excerpt: Primary human lung fibroblasts were isolated from lung resections of patients undergoing lung cancer surgery or lung transplantation performed after informed consent as approved by an external Research Ethics Committee (REC 15/SC0101) according to Royal Brompton Hospital protocol (Royal Brompton & Harefield NHS Foundation Trust, 2016). Fibroblasts from healthy individuals were also purchased from Lonza (Lonza, Basel, Switzerland).
Real Time PCR After treatment, the supernatant liquid was removed from cell cultures and RLT buffer containing 1% beta-mercaptoethanol was added to each well and then was frozen for later analysis. RNA extraction of cells was performed using the RNeasy Plus Mini Kit (QIAGEN), according to the manufacturer's protocol. Samples were defrosted at room temperature and centrifuged. The homogenate was transferred onto RNeasy MinElute spin columns and purified. RNA was reverse-transcribed into cDNA using the High-Capacity cDNA Reverse Transcription Kit (ThermoFisher) according to the manufacturer's instructions. Real-time PCR was performed using fast-qPCR mastermix (QIAGEN) on a Viia-7 instrument (Applied Biosciences) with Taqman primers for human genes, namely acod1, cd163, fn1, IL-1β, mmp1, mmp9 using actb (Life Technologies) as housekeeping gene.
Fibroblasts are the principal effector cell during lung fibrosis and the main source of the excessive extracellular matrix deposition seen during the disease. To explore the anti-fibrotic properties of itaconate analogues in human fibroblast cells, qPCR experiments were undertaken. Human lung fibroblast cells were seeded (10,000 cells/well) in a 48-well plate and were incubated with ICL-PO, ICL-2, ICL-3, ICL-4, ICL-6, itaconate, dimethyl itaconate, sodium itaconate and dimethyl malonate for 1 hour, after which the supernatant liquid was removed. The healthy fibroblasts were then incubated with 2 ng/mL transforming growth factor beta (TGFβ) for 24 hours in order to mimic pulmonary fibrosis. TGFβ is activated in fibrotic diseases and plays a key role in mediating fibrotic tissue. After treatment, RNA extraction of the cells was performed and 10 μg RNA per sample was reverse transcribed into cDNA. RT-PCR was performed with TaqMan primers for Col1α1, connective tissue growth factor (CTGF) and fibronectin (FN1) human genes. The results are shown in FIG. 2—(A) Gene expression of COL1A1 relative to two housekeeping genes (bactin and Beta-2-Microglobulin-averaged to make a ‘pooled’ control); (B) Gene expression of FN1 relative to housekeeping gene; and (C) Gene expression of CTGF relative to housekeeping gene.

human lung fibroblasts = conditions: exogenous itaconate added to cultures; cited from earlier work
lung fibrosis in mice = conditions: inhaled (particularly oropharyngeal inhalation); cited from earlier work

Structure (SMILES) | Extracellular Acidification Rate (ECAR) [1] | gene expression of Col1α1 [2] | gene expression of FN1 [2] | gene expression of CTGF [2] | proliferation of human lung fibroblasts (human lung fibroblasts) | wound healing of human lung fibroblasts (human lung fibroblasts) | lung fibrosis (lung fibrosis in mice)
C/C(=C\C(=O)O)C(=O)O [mesaconate] | concentration dependent reduction in ECAR | – | – | – | – | – | –
C=C(CC(=O)N(C)C)C(=O)O [ICL-PO, 3-(dimethylcarbamoyl)-2-methvlidenepropanoic acid] | – | decreased gene expression | decreased gene expression | decreased gene expression | – | – | –
C=C(CC(=O)[O-])C(=O)[O-].[Na+].[Na+] [sodium itaconate, reference compound] | – | decreased gene expression | decreased gene expression | decreased gene expression | – | – | –
C=C(CC(=O)OC(C)(C)C)C(=O)OC(C)(C)C [ICL-4, Bis(2-methyl-2-propanyl)-2-methylenesuccinate] | – | decreased gene expression | decreased gene expression | decreased gene expression | – | – | –
C/C(=C/C(=O)O)C(=O)O [citraconate] | concentration dependent reduction in ECAR | – | – | – | – | – | –
C/C=C(\CC(=O)O)C(=O)O [ICL-3, (2E)-2-ethylidenebutanedioic acid] | – | decreased gene expression | decreased gene expression | decreased gene expression | – | – | –
C=C(CC(=O)O)C(=O)OC [ICL-6, 3-(methoxycarbonyl)but-3-enoic acid] | – | decreased gene expression | decreased gene expression | decreased gene expression | – | – | –
COC(=O)CC(=O)OC [dimethyl malonate, reference compound] | – | decreased gene expression | decreased gene expression | decreased gene expression | – | – | –
C=C(CC(=O)O)C(=O)N(C)C [ICL-2, Sodium 3-(dimethylcarbamovl)-3-methvlidenepropanoate] | – | decreased gene expression | decreased gene expression | decreased gene expression | – | – | –
C=C(CC(=O)O)C(=O)O [itaconate, 2-methylidenebutanedioic acid, reference compound] | – | decreased gene expression | decreased gene expression | decreased gene expression | limits | limits | ameliorates lung fibrosis
C=C(CC(=O)OC)C(=O)OC [dimethyl itaconate] | – | decreased gene expression | decreased gene expression | decreased gene expression | – | – | –
